In brackets after ≈: the same amount, converted by molar mass. Where a SMILES comes first, the peptide text is derived from it. Bridges are numbered along the chain shown (N, C = ends). [ ]: non-standard residue; d: D form.
Experiments:
Candida tropicalis [1] = type: cell-based
Candida tropicalis [2] = type: cell-based; remark: listed apart in the source
[3] = tested on: Candida tropicalis (BNCC340288); conditions: BNCC340288, 24 h
[4] = tested on: Candida parapsilosis (BNCC336015); conditions: BNCC336015, 24 h
[5] = tested on: Bacillus subtilis (BNCC109047); conditions: BNCC109047, 24 h
[6] = tested on: Escherichia coli (BNCC336902); conditions: BNCC336902, 24 h
trypsin = conditions: pH 6.8
[7] = tested on: erythrocytes of C57BL/6 mice; conditions: 128 µM
[8] = tested on: human hepatocytes (THLE-3)
C57BL/6 mice = conditions: mouse, ip, 10 mg/kg
in vitro = conditions: serum
Bacillus subtilis = type: cell-based

Row | SMILES | Effect on growth of Candida tropicalis (growth curve) (Candida tropicalis [1]) | Bactericidal effect on Candida tropicalis (Candida tropicalis [2]) | Fungal counts after 60 min (Candida tropicalis [2]) | Reduction of fungal counts (Candida tropicalis [2]) | MIC, C. tropical [3] | MIC, C. parapsilosis [4] | MIC, B. subtilis [5] | MIC, E. coli [6] | Stability in SIF (trypsin) | Hemolysis [7] | Toxicity on human hepatocyte THLE-3 [8] | Body weight change (C57BL/6 mice; in vivo) | remaining at 4 h (in vitro) | Effect on growth of Bacillus subtilis (growth curve) (Bacillus subtilis) | Cytotoxicity on human hepatocyte THLE-3 [8] | In vivo safety in mice (C57BL/6 mice)
1 | CC(C)C[C@@H]1NC(=O)[C@@H](CCCCN)NC(=O)[C@@H]2CSSC[C@H](NC(=O)[C@H](CC(C)C)NC(=O)[C@@H](CCCCN)NC(=O)[C@@H](CCCCN)NC(=O)[C@@H](N)CC(C)C)C(=O)N[C@@H](CSSC[C@@H](C(N)=O)NC(=O)[C@@H](CCCCN)NC1=O)C(=O)N[C@H](CCCCN)C(=O)N2 [Pep 6] (H-L[dK][dK]LCC[dK]C[dK]L[dK]C-NH2; disulfide 5-8, 6-12) | inhibitory effects | significant bactericidal effect | 1 × 10^3 cfu/mL | over 1000 fold | 8 µM (≈ 11.2 µg/mL) | 32 µM (≈ 45 µg/mL) | 64 µM (≈ 90 µg/mL) | 128 µM (≈ 180 µg/mL) | remained almost entirely intact after 24 h | less than 5% | little or no toxicity | no significant changes | 20% |  |  | 
2 | CC(C)C[C@@H]1NC(=O)[C@H](CCCCN)NC(=O)[C@H](CC(C)C)NC(=O)[C@H](CCCCN)NC(=O)[C@@H]2CSSC[C@H](NC(=O)[C@@H](N)CC(C)C)C(=O)N[C@@H](CSSC[C@@H](C(N)=O)NC(=O)[C@H](CCCCN)NC1=O)C(=O)N[C@@H](CC(C)C)C(=O)N[C@@H](CCCCN)C(=O)N2 [Pep 7] (H-LCCLKCKLKLKC-NH2; disulfide 2-6, 3-12) |  |  |  |  | 64 µM (≈ 89 µg/mL) | 64 µM (≈ 89 µg/mL) | 64 µM (≈ 89 µg/mL) | >128 µM | nearly fully degraded within one hour |  |  |  |  |  |  | 
3 | CC(C)C[C@@H]1NC(=O)[C@H](CCCCN)NC(=O)[C@@H]2CSSC[C@H](NC(=O)[C@H](CC(C)C)NC(=O)[C@H](CCCCN)NC(=O)[C@H](CCCCN)NC(=O)[C@@H](N)CC(C)C)C(=O)N[C@@H](CSSC[C@@H](C(N)=O)NC(=O)[C@H](CCCCN)NC1=O)C(=O)N[C@@H](CCCCN)C(=O)N2 [Pep 9] (H-LKKLCCKCKLKC-NH2; disulfide 5-8, 6-12) | inhibitory effects |  | 1 × 10^3 cfu/mL | over 1000 fold | 16 µM (≈ 22.5 µg/mL) | 16 µM (≈ 22.5 µg/mL) | 128 µM (≈ 180 µg/mL) | >128 µM | nearly fully degraded within one hour |  | little or no toxicity |  |  |  |  | 
4 | CC(C)C[C@@H]1NC(=O)[C@@H]2CSSC[C@@H](C(N)=O)NC(=O)[C@@H](CCCNC(=N)N)NC(=O)[C@H](CC(C)C)NC(=O)[C@@H](CCCCN)NC(=O)[C@H](CC(C)C)NC(=O)[C@@H](CCCNC(=N)N)NC(=O)[C@H](CSSC[C@H](NC(=O)[C@@H](N)CC(C)C)C(=O)N2)NC(=O)[C@@H](CCCNC(=N)N)NC1=O [Pep 8] (H-LCCL[dR]C[dR]L[dK]L[dR]C-NH2; disulfide 2-6, 3-12) | inhibitory effects | significant bactericidal effect | 1 × 10^3 cfu/mL | over 1000 fold | 8 µM (≈ 11.8 µg/mL) | 8 µM (≈ 11.8 µg/mL) | 16 µM (≈ 23.6 µg/mL) | 128 µM (≈ 189 µg/mL) | remained almost entirely intact after 24 h | less than 5% |  |  | 20% | inhibitory effects | remarkable cytotoxicity | favorable safety
5 | CC(C)C[C@@H]1NC(=O)[C@@H]2CSSC[C@@H](C(N)=O)NC(=O)[C@@H](CCCCN)NC(=O)[C@H](Cc3c[nH]c4ccccc34)NC(=O)[C@@H](CCCCN)NC(=O)[C@H](CSSC[C@H](NC(=O)[C@@H](N)CC(C)C)C(=O)N2)NC(=O)[C@@H](CCCCN)NC(=O)[C@H](CC(C)C)NC(=O)[C@@H](CCCCN)NC1=O [Pep 2] (H-LCCL[dK]L[dK]C[dK]W[dK]C-NH2; disulfide 2-8, 3-12) |  |  |  |  | >64 µM | >64 µM | >64 µM | >64 µM |  |  |  |  |  |  |  | 
6 | CC(C)C[C@@H]1NC(=O)[C@@H]2CSSC[C@@H](C(N)=O)NC(=O)[C@@H](CCCCN)NC(=O)[C@H](Cc3ccc(O)cc3)NC(=O)[C@@H](CCCCN)NC(=O)[C@H](CSSC[C@H](NC(=O)CN)C(=O)N2)NC(=O)[C@@H](CCCCN)NC(=O)[C@H](CC(C)C)NC(=O)[C@@H](CCCCN)NC1=O [Pep 1] (H-GCCL[dK]L[dK]C[dK]Y[dK]C-NH2; disulfide 2-8, 3-12) |  |  |  |  | >64 µM | >64 µM | >64 µM | >64 µM |  |  |  |  |  |  |  | 
7 | CC(C)C[C@@H]1NC(=O)[C@@H]2CSSC[C@@H](C(N)=O)NC(=O)[C@@H](CCCCN)NC(=O)[C@H](CC(C)C)NC(=O)[C@@H](CCCCN)NC(=O)[C@H](CSSC[C@H](NC(=O)[C@@H](N)CC(C)C)C(=O)N2)NC(=O)[C@H](C)NC(=O)[C@@H](CCCCN)NC(=O)[C@H](CC(C)C)NC(=O)[C@@H](CCCCN)NC1=O [Pep 4] (H-LCCL[dK]L[dK]AC[dK]L[dK]C-NH2; disulfide 2-9, 3-13) |  |  |  |  | >64 µM | >64 µM | >64 µM | >64 µM |  |  |  |  |  |  |  | 
8 | CC(C)C[C@@H]1NC(=O)[C@@H]2CSSC[C@@H](C(N)=O)NC(=O)[C@@H](CCCCN)NC(=O)[C@H](CC(C)C)NC(=O)[C@@H](CCCCN)NC(=O)[C@H](CSSC[C@H](NC(=O)[C@@H](N)CC(C)C)C(=O)N2)NC(=O)[C@@H](CCCCN)NC(=O)[C@H](CC(C)C)NC(=O)[C@@H](CCCCN)NC1=O [Pep 3] (H-LCCL[dK]L[dK]C[dK]L[dK]C-NH2; disulfide 2-8, 3-12) |  |  |  |  | >64 µM | >64 µM | >64 µM | >64 µM |  |  |  |  |  |  |  | 
9 | CC(C)C[C@@H]1NC(=O)[C@@H]2CSSC[C@@H](C(N)=O)NC(=O)[C@@H](CCCCN)NC(=O)[C@H](CC(C)C)NC(=O)[C@@H](CCCCN)NC(=O)[C@H](CC(C)C)NC(=O)[C@@H](CCCCN)NC(=O)[C@H](CSSC[C@H](NC(=O)[C@@H](N)CC(C)C)C(=O)N2)NC(=O)[C@@H](CCCCN)NC1=O [Pep 5] (H-LCCL[dK]C[dK]L[dK]L[dK]C-NH2; disulfide 2-6, 3-12) |  |  |  |  | 64 µM (≈ 89 µg/mL) | 128 µM (≈ 178 µg/mL) | 128 µM (≈ 178 µg/mL) | 32 µM (≈ 44.5 µg/mL) | remained almost entirely intact after 24 h | less than 5% |  |  | 20% |  |  | 

Source: publication PMC10935098 (Molecules, 2024)
